The values below come from paper PMC4685510, “A Cell Biologist’s Field Guide to Aurora Kinase Inhibitors” (Frontiers in Oncology, 2015).

Holding throughout (assay): biochemical
Holding throughout (assay type): biochemical

For experiment [1], the target named is T1, 363 human kinases (including Aurora A/B/C) (Homo sapiens, UniProt O94806).
T1 sequence (O94806 1-890): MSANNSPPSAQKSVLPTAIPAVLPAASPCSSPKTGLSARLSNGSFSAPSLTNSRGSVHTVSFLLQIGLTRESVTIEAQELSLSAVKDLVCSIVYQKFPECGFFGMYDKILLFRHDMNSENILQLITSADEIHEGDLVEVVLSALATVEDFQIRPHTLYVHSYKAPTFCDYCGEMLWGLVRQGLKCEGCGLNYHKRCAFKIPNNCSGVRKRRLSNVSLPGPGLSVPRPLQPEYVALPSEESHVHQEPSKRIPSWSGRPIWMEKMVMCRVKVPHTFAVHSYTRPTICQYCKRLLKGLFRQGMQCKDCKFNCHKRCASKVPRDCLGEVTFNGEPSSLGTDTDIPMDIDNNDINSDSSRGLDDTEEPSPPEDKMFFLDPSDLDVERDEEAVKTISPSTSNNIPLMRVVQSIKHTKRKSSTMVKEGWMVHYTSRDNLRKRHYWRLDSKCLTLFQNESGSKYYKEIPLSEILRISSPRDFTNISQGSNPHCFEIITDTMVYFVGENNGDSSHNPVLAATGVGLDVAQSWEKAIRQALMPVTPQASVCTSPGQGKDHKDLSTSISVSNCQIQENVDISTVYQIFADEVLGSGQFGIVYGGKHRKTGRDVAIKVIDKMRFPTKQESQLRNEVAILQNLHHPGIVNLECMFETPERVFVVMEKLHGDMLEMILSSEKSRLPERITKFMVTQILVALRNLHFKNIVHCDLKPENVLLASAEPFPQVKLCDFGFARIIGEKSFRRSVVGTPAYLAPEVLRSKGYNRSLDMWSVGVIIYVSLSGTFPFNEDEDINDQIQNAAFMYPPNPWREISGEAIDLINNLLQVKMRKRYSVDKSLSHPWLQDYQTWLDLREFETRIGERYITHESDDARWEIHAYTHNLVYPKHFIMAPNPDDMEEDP
As to conditions: PKCnu/PRKD3; for remaining activity at 0.1 µM: 100 nM; for remaining activity at 0.1 µM / remaining activity at 0.5 µM: read-out: % Enzyme Activity (relative to DMSO controls).
Excerpt: (§1) However, the Aurora A/B selectivity ratios derived from our in vitro and in vivo data can be compared to prioritize inhibitors.

For experiment [2], the target named is 363 human kinases (including Aurora A/B/C) (Homo sapiens, UniProt P16234). The settings on record: PDGFRa; for remaining activity at 0.1 µM: 100 nM; for remaining activity at 0.1 µM / remaining activity at 0.5 µM: read-out: % Enzyme Activity (relative to DMSO controls).
Excerpt: as §1
The target in experiment [3] is T2, 363 human kinases (including Aurora A/B/C) (Homo sapiens, UniProt P29322).
T2 sequence (P29322 28-1005): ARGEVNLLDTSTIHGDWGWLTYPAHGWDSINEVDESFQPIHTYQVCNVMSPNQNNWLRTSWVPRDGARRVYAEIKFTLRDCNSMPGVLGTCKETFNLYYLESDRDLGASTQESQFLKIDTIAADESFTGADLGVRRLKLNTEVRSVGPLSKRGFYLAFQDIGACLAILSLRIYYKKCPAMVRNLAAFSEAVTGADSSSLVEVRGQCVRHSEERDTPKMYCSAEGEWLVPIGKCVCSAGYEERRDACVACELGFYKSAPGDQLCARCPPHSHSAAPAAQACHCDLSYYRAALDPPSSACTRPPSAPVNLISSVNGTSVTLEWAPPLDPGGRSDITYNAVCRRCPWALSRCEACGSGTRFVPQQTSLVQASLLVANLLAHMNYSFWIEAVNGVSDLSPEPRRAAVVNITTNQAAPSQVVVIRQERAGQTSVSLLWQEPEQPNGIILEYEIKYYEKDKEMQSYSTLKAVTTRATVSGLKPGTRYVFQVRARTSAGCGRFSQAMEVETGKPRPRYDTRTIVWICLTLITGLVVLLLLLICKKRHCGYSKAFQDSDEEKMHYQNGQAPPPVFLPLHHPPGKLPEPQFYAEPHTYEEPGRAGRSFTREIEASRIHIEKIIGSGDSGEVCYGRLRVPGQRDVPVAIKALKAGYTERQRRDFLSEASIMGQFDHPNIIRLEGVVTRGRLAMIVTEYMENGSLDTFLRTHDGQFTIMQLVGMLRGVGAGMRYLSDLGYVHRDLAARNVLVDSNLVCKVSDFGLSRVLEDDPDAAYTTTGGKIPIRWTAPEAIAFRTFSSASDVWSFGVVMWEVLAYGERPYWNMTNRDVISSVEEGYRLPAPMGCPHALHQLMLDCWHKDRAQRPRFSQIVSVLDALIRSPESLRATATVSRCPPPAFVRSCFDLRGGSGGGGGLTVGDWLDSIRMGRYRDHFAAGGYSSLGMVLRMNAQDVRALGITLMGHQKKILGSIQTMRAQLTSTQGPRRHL
The settings on record: EPHA8, [ATP] 100 µM; for remaining activity at 0.1 µM: 100 nM; for remaining activity at 0.1 µM / remaining activity at 0.5 µM: read-out: % Enzyme Activity (relative to DMSO controls).
Excerpt: as §1

For experiment [4], the target named is 363 human kinases (including Aurora A/B/C) (Homo sapiens, UniProt P36894). The settings on record: ALK3/BMPR1A, [ATP] 1 µM; for remaining activity at 0.1 µM: 100 nM; for remaining activity at 0.1 µM / remaining activity at 0.5 µM: read-out: % Enzyme Activity (relative to DMSO controls).
Excerpt: as §1
Experiment [5] deals with 363 human kinases (including Aurora A/B/C) (Homo sapiens, UniProt P49840). The settings on record: GSK3a; for remaining activity at 0.1 µM: 100 nM; for remaining activity at 0.1 µM / remaining activity at 0.5 µM: read-out: % Enzyme Activity (relative to DMSO controls).
Excerpt: as §1
Experiment [6] addresses 363 human kinases (including Aurora A/B/C) (Homo sapiens, UniProt P49841). As to conditions: GSK3b; for remaining activity at 0.1 µM: 100 nM; for remaining activity at 0.1 µM / remaining activity at 0.5 µM: read-out: % Enzyme Activity (relative to DMSO controls).
Excerpt: as §1
In experiment [7] the target is 363 human kinases (including Aurora A/B/C) (Homo sapiens, UniProt Q96GD4). As to conditions: for remaining activity at 0.1 µM / remaining activity at 0.5 µM: read-out: % Enzyme Activity (relative to DMSO controls).
Excerpt: as §1
The target in experiment [8] is 363 human kinases (including Aurora A/B/C) (Homo sapiens, UniProt Q9BUB5). The settings on record: MNK1; for remaining activity at 0.1 µM: 100 nM; for remaining activity at 0.1 µM / remaining activity at 0.5 µM: read-out: % Enzyme Activity (relative to DMSO controls).
Excerpt: as §1
For experiment [9], the target named is T3, 363 human kinases (including Aurora A/B/C) (Homo sapiens, UniProt Q9HBY8).
T3 sequence (Q9HBY8 1-367): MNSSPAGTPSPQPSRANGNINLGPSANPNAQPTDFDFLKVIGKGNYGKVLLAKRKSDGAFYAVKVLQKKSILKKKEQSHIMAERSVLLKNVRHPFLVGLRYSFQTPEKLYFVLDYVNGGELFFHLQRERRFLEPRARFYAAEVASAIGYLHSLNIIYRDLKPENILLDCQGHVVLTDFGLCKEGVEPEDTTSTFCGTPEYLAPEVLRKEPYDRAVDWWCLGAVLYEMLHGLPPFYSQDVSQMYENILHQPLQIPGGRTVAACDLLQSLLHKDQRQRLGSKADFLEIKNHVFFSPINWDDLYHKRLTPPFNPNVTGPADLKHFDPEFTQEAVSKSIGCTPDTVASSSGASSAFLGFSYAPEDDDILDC
As to conditions: SGK2; for remaining activity at 0.1 µM: 100 nM; for remaining activity at 0.1 µM / remaining activity at 0.5 µM: read-out: % Enzyme Activity (relative to DMSO controls).
Excerpt: as §1

Molecules are shown by their SMILES. Like-named read-outs stand apart in the source and are kept apart here.

Chain of 363 human kinases (including Aurora A/B/C) (Homo sapiens, UniProt P49840) (P49840 whole entry): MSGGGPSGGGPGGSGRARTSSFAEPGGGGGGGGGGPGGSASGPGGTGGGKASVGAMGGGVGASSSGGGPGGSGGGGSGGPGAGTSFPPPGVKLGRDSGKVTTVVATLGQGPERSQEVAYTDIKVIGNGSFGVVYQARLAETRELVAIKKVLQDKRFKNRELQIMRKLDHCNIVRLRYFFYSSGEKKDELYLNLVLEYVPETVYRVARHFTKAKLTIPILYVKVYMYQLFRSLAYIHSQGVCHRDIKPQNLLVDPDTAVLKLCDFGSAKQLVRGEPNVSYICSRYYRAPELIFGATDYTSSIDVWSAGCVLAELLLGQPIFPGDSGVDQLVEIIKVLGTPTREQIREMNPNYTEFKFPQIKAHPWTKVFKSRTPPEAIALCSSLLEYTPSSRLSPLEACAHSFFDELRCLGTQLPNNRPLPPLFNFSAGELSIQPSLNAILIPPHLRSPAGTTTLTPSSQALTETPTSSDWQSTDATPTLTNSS
Chain of 363 human kinases (including Aurora A/B/C) (Homo sapiens, UniProt P36894) (P36894 24-532): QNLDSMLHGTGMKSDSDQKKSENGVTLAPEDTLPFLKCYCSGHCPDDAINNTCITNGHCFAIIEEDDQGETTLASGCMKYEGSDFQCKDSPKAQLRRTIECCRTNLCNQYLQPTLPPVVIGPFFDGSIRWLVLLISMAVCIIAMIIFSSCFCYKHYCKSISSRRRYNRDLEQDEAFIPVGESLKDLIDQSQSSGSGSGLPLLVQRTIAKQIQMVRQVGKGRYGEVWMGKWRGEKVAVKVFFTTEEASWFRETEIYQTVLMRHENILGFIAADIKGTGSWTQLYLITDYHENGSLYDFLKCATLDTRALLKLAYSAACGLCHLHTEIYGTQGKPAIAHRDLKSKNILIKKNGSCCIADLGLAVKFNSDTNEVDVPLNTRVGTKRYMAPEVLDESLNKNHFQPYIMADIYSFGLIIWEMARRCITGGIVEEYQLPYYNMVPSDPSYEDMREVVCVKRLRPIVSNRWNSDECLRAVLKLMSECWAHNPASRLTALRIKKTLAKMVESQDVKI
Chain of 363 human kinases (including Aurora A/B/C) (Homo sapiens, UniProt Q9BUB5) (Q9BUB5 whole entry): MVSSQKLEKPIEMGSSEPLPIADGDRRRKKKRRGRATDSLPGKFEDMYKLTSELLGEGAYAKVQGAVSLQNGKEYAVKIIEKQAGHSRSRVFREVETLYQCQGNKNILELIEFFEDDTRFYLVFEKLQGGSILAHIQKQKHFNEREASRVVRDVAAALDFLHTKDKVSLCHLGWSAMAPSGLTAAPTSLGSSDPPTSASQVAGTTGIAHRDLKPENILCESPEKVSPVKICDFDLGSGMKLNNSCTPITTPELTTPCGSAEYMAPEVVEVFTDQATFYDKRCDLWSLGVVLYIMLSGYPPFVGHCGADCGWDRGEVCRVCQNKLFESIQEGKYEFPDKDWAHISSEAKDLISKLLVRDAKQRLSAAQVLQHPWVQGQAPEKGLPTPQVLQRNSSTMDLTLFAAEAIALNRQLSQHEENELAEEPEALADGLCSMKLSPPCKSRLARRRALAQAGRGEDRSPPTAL
Chain of 363 human kinases (including Aurora A/B/C) (Homo sapiens, UniProt P16234) (P16234 24-1089): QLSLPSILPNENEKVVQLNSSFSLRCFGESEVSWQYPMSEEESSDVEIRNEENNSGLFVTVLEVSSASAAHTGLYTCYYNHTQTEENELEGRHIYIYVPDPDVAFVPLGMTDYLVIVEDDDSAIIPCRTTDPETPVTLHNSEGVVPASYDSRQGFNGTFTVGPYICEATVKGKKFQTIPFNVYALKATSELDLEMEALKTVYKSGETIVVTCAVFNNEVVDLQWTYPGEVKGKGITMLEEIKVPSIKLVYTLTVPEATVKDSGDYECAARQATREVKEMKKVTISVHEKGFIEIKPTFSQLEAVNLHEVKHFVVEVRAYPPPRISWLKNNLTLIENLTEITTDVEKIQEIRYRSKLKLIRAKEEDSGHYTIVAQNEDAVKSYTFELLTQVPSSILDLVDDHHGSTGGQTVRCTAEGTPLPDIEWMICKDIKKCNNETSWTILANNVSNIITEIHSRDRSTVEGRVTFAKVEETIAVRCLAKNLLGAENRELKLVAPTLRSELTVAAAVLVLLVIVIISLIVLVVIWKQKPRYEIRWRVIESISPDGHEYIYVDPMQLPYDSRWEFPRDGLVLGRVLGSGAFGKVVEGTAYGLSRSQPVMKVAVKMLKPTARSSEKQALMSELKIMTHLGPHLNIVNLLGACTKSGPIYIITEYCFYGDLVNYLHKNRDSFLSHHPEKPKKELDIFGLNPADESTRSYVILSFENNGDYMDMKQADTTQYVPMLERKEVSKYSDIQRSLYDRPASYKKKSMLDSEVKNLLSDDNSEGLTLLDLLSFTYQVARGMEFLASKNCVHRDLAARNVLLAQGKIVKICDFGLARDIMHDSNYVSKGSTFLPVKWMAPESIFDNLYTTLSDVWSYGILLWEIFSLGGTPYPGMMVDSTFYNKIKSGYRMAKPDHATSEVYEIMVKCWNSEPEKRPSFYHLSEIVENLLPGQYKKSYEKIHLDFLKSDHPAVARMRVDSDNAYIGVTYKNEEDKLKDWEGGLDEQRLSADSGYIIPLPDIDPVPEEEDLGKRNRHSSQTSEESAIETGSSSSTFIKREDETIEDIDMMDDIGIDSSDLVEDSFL
Chain of 363 human kinases (including Aurora A/B/C) (Homo sapiens, UniProt P49841) (P49841 whole entry): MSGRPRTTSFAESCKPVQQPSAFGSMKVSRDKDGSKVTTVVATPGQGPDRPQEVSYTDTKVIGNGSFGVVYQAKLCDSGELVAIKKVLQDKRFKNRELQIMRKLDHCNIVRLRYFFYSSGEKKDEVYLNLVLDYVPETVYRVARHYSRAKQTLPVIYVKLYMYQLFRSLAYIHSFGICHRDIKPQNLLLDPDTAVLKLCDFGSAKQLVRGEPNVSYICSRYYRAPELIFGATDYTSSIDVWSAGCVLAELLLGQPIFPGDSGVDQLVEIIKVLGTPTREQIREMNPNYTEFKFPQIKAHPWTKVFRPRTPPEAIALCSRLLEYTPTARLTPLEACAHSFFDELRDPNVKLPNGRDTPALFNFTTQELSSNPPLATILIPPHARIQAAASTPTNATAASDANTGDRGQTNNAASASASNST
Chain of 363 human kinases (including Aurora A/B/C) (Homo sapiens, UniProt Q96GD4) (Q96GD4 whole entry): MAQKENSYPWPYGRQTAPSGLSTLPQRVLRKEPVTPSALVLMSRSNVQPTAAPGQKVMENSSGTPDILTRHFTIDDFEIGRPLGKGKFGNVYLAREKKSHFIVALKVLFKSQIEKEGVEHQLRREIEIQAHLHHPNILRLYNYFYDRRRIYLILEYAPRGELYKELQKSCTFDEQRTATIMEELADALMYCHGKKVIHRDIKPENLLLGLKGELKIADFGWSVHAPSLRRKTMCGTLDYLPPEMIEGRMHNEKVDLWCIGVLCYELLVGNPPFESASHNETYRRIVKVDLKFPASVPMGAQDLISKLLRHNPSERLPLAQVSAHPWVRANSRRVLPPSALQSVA

As to `CCn1cc(-c2ccnc3[nH]c(-c4cccc(CN(C)C)c4)cc23)c(-c2ccc(NC(=O)N(C)C)cc2)n1` [GSK1070916], the remaining activity at 0.1 µM in experiment [1] is 76.8%; in [2] it was 94%; in experiment [3], 92%; in [4], 87.6%; in [5], 99%; in experiment [6] it was 102%. Besides, the remaining activity at 0.1 µM in experiment [7] is 12.8%; in experiment [8], 113%; in experiment [9], 102%.

For `O=C(O)[C@]1(Cc2cccc(Nc3nccs3)n2)CC[C@@H](Oc2cccc(Cl)c2F)CC1` [MK-5108], the remaining activity at 0.1 µM in experiment [1] stood at 97.1%; in experiment [2] it was 97.1%; in experiment [3] it was 88.7%; in experiment [4], 64.3%; in [5], 32.5%; in experiment [6], 37.7%. The remaining activity at 0.1 µM worked out at 9.6% in [7], 105% in experiment [8] and 105% in [9]. The remaining activity at 0.5 µM turned out to be 87.9% in [1] (500 nM); 92.6% in experiment [2] (500 nM); 67.9% in experiment [3] (500 nM); 49.6% in experiment [4] (500 nM); 24.7% in [5] (500 nM); 6.95% in experiment [6] (500 nM). Also, the values for the remaining activity at 0.5 µM in experiment [7], in [8] (500 nM) and in [9] (500 nM) were 2.85%, 116% and 105%, respectively.

Consider `O=C(c1cccc(Cl)c1F)N1CCN(Cc2cccc(Nc3nccs3)n2)CC1` [MK-8745], for which the “% Enzyme Activity (relative to DMSO controls)” value in experiment [1] (500 nM) came out at 75.68%; in [2] (500 nM), 99.66%; in experiment [3] (500 nM), 85.09%; in [4] (500 nM), 83.31%; in [5] (500 nM), 21.35%; in experiment [6] (500 nM), 28.78%. Also, the “% Enzyme Activity (relative to DMSO controls)” value turned out to be 59.14% in [7] (Aurora B, [ATP] 100 µM, 500 nM); 107.37% in experiment [8] (500 nM); 98.06% in experiment [9] (500 nM). Further, the remaining activity at 0.5 µM is 79% in experiment [1] (500 nM); 99.8% in experiment [2] (500 nM); 86.1% in [3] (500 nM); 84.6% in [4] (500 nM); 23% in experiment [5] (500 nM); 29.6% in experiment [6] (500 nM). Further, the remaining activity at 0.5 µM in experiment [7] (Aurora B, [ATP] 100 µM, 500 nM) was 62.3%; in experiment [8] (500 nM), 107%; in [9] (500 nM), 100%.
